Laboratory results from patent publication US12077503B2, “Substituted cyclic amides and their use as herbicides” (FMC CORPORATION, priority 2015, dated 2024).

Columns and labels:
Type in all cases: in vivo
[1] = tested on: barnyardgrass (Echinochloa crus-galli); experiment: Test B flooded paddy test; conditions: Echinochloa crus-galli, 360 h, Flood, 250 g ai/ha; visually evaluated after 13 to 15 d; read-out: Plant response rating, Barnyardgrass (0 to 100 scale where 0 is no effect and 100 is complete control)
Procedure, shortened: (§1)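 Rating scale 0–100 (visual, vs untreated controls) after a 13–15 d greenhouse period; application to the flood layer, 3 cm above soil and maintained; plants at 2-leaf stage when treated.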

rice (Oryra sativa) = experiment: Test B flooded paddy test; conditions: Oryza sativa, 360 h, Flood, 250 g ai/ha; visually evaluated after 13 to 15 d; read-out: Plant response rating, Rice (0 to 100 scale where 0 is no effect and 100 is complete control)
Procedure, shortened: as §1

[2] = tested on: sedge, umbrella (small-flower umbrella sedge, Cyperus difformis); experiment: Test B flooded paddy test; conditions: Cyperus difformis, 360 h, Flood, 250 g ai/ha; visually evaluated after 13 to 15 d; read-out: Plant response rating, Sedge, Umbrella (0 to 100 scale where 0 is no effect and 100 is complete control)
Procedure, shortened: as §1

[3] = tested on: ducksalad (Heteranthera limosa); experiment: Test B flooded paddy test; conditions: Heteranthera limosa, 360 h, Flood, 250 g ai/ha; visually evaluated after 13 to 15 d; read-out: Plant response rating, Ducksalad (0 to 100 scale where 0 is no effect and 100 is complete control)
Procedure, shortened: as §1

[4] = tested on: barnyardgrass (Echinochloa crus-galli); experiment: Test A preemergence; conditions: Echinochloa crus-galli, pre-emergence, 240 h, Preemergence; for pest or weed control at 31 g/ha: 31 g ai/ha, 0 to 100 scale where 0 is no effect and 100 is complete control, read-out: Barnyardgrass plant response rating; for pest or weed control at 125 g/ha: 125 g ai/ha, 0 to 100 scale (0 no effect, 100 complete control), read-out: Plant response rating, Barnyardgrass
Procedure, shortened: (§2)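 Ratings of 0 (no effect) to 100 (complete control) come from visual comparison with untreated controls roughly 10 d after treatment. Test chemicals, formulated in a non-phytotoxic solvent mixture with surfactant, were applied either as a preemergence directed soil spray on seeded soil or postemergence to one- to two-leaf plants 2 to 10 cm tall.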

[5] = tested on: pigweed (Amaranthus retroflexus); experiment: Test A preemergence; conditions: Amaranthus retroflexus, pre-emergence, 240 h, Preemergence; for pest or weed control at 31 g/ha: 31 g ai/ha, 0 to 100 scale where 0 is no effect and 100 is complete control, read-out: Pigweed plant response rating; for pest or weed control at 125 g/ha: 125 g ai/ha, 0 to 100 scale (0 no effect, 100 complete control), read-out: Plant response rating, Pigweed
Kochia (Kochia scoparia) [6] = experiment: Test A preemergence; conditions: Bassia scoparia, pre-emergence, 240 h, Preemergence; for pest or weed control at 31 g/ha: 31 g ai/ha, 0 to 100 scale where 0 is no effect and 100 is complete control, read-out: Kochia plant response rating; for pest or weed control at 125 g/ha: 125 g ai/ha, 0 to 100 scale (0 no effect, 100 complete control), read-out: Plant response rating, Kochia
Procedure, shortened: as §2

[7] = tested on: ryegrass, Italian (Italian ryegrass, Lolium multiflorum); experiment: Test A preemergence; conditions: Lolium multiflorum, pre-emergence, 240 h, Preemergence; for pest or weed control at 31 g/ha: 31 g ai/ha, 0 to 100 scale where 0 is no effect and 100 is complete control, read-out: Ryegrass, Italian plant response rating; for pest or weed control at 125 g/ha: 125 g ai/ha, 0 to 100 scale (0 no effect, 100 complete control), read-out: Plant response rating, Ryegrass, Italian
Procedure, shortened: as §2

[8] = tested on: ragweed (common ragweed, Ambrosia elatior); experiment: Test A preemergence; conditions: Ambrosia artemisiifolia, pre-emergence, 240 h, Preemergence; for pest or weed control at 31 g/ha: 31 g ai/ha, 0 to 100 scale where 0 is no effect and 100 is complete control, read-out: Ragweed plant response rating; for pest or weed control at 125 g/ha: 125 g ai/ha, 0 to 100 scale (0 no effect, 100 complete control), read-out: Plant response rating, Ragweed
Procedure, shortened: as §2

[9] = tested on: giant foxtail (Setaria faberii); experiment: Test A preemergence; conditions: Setaria faberi, pre-emergence, 240 h, Preemergence; for pest or weed control at 31 g/ha: 31 g ai/ha, 0 to 100 scale where 0 is no effect and 100 is complete control, read-out: Foxtail, Giant plant response rating; for pest or weed control at 125 g/ha: 125 g ai/ha, 0 to 100 scale (0 no effect, 100 complete control), read-out: Plant response rating, Foxtail, Giant
Procedure, shortened: as §2

[10] = tested on: barnyardgrass (Echinochloa crus-galli); experiment: Test A postemergence; conditions: Echinochloa crus-galli, post-emergence, 240 h, Postemergence; for pest or weed control at 125 g/ha: 125 g ai/ha, visual rating about 10 d after treatment, read-out: Barnyardgrass plant response rating (0 to 100 scale, 0 no effect, 100 complete control); for pest or weed control at 31 g/ha: 31 g ai/ha, 0 is no effect, 100 is complete control, read-out: Barnyardgrass plant response rating (0 to 100 scale)
Procedure, shortened: as §2

[11] = tested on: Galium (catchweed bedstraw, Galium aparine); experiment: Test A postemergence; conditions: Galium, post-emergence, 240 h, Postemergence, read-out: Galium plant response rating (0 to 100 scale); for pest or weed control at 125 g/ha: 125 g ai/ha, visual rating about 10 d after treatment; for pest or weed control at 31 g/ha: 31 g ai/ha, 0 is no effect, 100 is complete control
Procedure, shortened: as §2

[12] = tested on: pigweed (Amaranthus retroflexus); experiment: Test A postemergence; conditions: Amaranthus retroflexus, post-emergence, 240 h, Postemergence, read-out: Pigweed plant response rating (0 to 100 scale); for pest or weed control at 125 g/ha: 125 g ai/ha, visual rating about 10 d after treatment; for pest or weed control at 31 g/ha: 31 g ai/ha, 0 is no effect, 100 is complete control
Procedure, shortened: as §2

[13] = tested on: wheat (Triticum aestivum); experiment: Test A postemergence; conditions: Triticum aestivum, post-emergence, 240 h, Postemergence, read-out: Wheat plant response rating (0 to 100 scale); for plant injury at 125 g/ha: 125 g ai/ha, visual rating about 10 d after treatment; for plant injury at 31 g/ha: 31 g ai/ha, 0 is no effect, 100 is complete control
Procedure, shortened: as §2

Kochia (Kochia scoparia) [14] = experiment: Test A postemergence; conditions: Bassia scoparia, post-emergence, 240 h, Postemergence, read-out: Kochia plant response rating (0 to 100 scale); for pest or weed control at 125 g/ha: 125 g ai/ha, visual rating about 10 d after treatment; for pest or weed control at 31 g/ha: 31 g ai/ha, 0 is no effect, 100 is complete control
Procedure, shortened: as §2

[15] = tested on: ryegrass, Italian (Italian ryegrass, Lolium multiflorum); experiment: Test A postemergence; conditions: Lolium multiflorum, post-emergence, 240 h, Postemergence, read-out: Ryegrass, Italian plant response rating (0 to 100 scale); for pest or weed control at 125 g/ha: 125 g ai/ha, visual rating about 10 d after treatment; for pest or weed control at 31 g/ha: 31 g ai/ha, 0 is no effect, 100 is complete control
Procedure, shortened: as §2

[16] = tested on: ragweed (common ragweed, Ambrosia elatior); experiment: Test A postemergence; conditions: Ambrosia artemisiifolia, post-emergence, 240 h, Postemergence, read-out: Ragweed plant response rating (0 to 100 scale); for pest or weed control at 125 g/ha: 125 g ai/ha, visual rating about 10 d after treatment; for pest or weed control at 31 g/ha: 31 g ai/ha, 0 is no effect, 100 is complete control
Procedure, shortened: as §2

[17] = tested on: giant foxtail (Setaria faberii); experiment: Test A postemergence; conditions: Setaria faberi, post-emergence, 240 h, Postemergence, read-out: Foxtail, Giant plant response rating (0 to 100 scale); for pest or weed control at 125 g/ha: 125 g ai/ha, visual rating about 10 d after treatment; for pest or weed control at 31 g/ha: 31 g ai/ha, 0 is no effect, 100 is complete control
Procedure, shortened: as §2

corn (Zea mays) = experiment: Test A postemergence; conditions: Zea mays, post-emergence, 240 h, Postemergence, read-out: Corn plant response rating (0 to 100 scale); for plant injury at 125 g/ha: 125 g ai/ha, visual rating about 10 d after treatment; for plant injury at 31 g/ha: 31 g ai/ha, 0 is no effect, 100 is complete control
Procedure, shortened: as §2

[18] = tested on: blackgrass (Alopecurus myosuroides); experiment: Test A postemergence; conditions: Alopecurus myosuroides, post-emergence, 240 h, Postemergence, read-out: Blackgrass plant response rating (0 to 100 scale); for pest or weed control at 125 g/ha: 125 g ai/ha, visual rating about 10 d after treatment; for pest or weed control at 31 g/ha: 31 g ai/ha, 0 is no effect, 100 is complete control
Procedure, shortened: as §2

Row | SMILES | pest or weed control at 250 g/ha [1] [%] | pest or weed control at 250 g/ha (rice (Oryra sativa)) [%] | pest or weed control at 250 g/ha [2] [%] | pest or weed control at 250 g/ha [3] [%] | pest or weed control at 31 g/ha [4] [%] | pest or weed control at 125 g/ha [4] [%] | pest or weed control at 31 g/ha [5] [%] | pest or weed control at 125 g/ha [5] [%] | pest or weed control at 31 g/ha (Kochia (Kochia scoparia) [6]) [%] | pest or weed control at 125 g/ha (Kochia (Kochia scoparia) [6]) [%] | pest or weed control at 31 g/ha [7] [%] | pest or weed control at 125 g/ha [7] [%] | pest or weed control at 31 g/ha [8] [%] | pest or weed control at 125 g/ha [8] [%] | pest or weed control at 31 g/ha [9] [%] | pest or weed control at 125 g/ha [9] [%] | pest or weed control at 125 g/ha [10] [%] | pest or weed control at 31 g/ha [10] [%] | pest or weed control at 125 g/ha [11] [%] | pest or weed control at 31 g/ha [11] [%] | other results
1 | CC(C)=Cc1cc([C@H]2CN(C)C(=O)[C@@H]2C(=O)Nc2cccc(F)c2F)ccc1C(F)(F)F [Compound 1337] | 20 | 20 | 0 | 20 | 50 | 80 | 0 | 0 | 0 | 0 | 20 | 70 | 0 | 0 | 40 | 80 | 30 | 20 | 0 | 0 | pest or weed control at 125 g/ha [12]: 20%; pest or weed control at 31 g/ha [12]: 0%; plant injury at 125 g/ha [13]: 20%; plant injury at 31 g/ha [13]: 0%; pest or weed control at 125 g/ha (Kochia (Kochia scoparia) [14]): 20%; pest or weed control at 31 g/ha (Kochia (Kochia scoparia) [14]): 20%; pest or weed control at 125 g/ha [15]: 20%; pest or weed control at 31 g/ha [15]: 0%; pest or weed control at 125 g/ha [16]: 0%; pest or weed control at 31 g/ha [16]: 0%; pest or weed control at 125 g/ha [17]: 40%; pest or weed control at 31 g/ha [17]: 20%; plant injury at 125 g/ha (corn (Zea mays)): 0%; plant injury at 31 g/ha (corn (Zea mays)): 0%; pest or weed control at 125 g/ha [18]: 0%; pest or weed control at 31 g/ha [18]: 0%
2 | COc1c([C@H]2CN(C)C(=O)[C@@H]2C(=O)Nc2ccccc2F)cccc1C(F)(F)F [Compound 1338] | 90 | 25 | 0 | 100 | 90 | 100 | 0 | 0 | 0 | 0 | 0 | 0 | 0 | 0 | 80 | 90 | 80 | 70 | 30 | 0 | pest or weed control at 125 g/ha [12]: 0%; pest or weed control at 31 g/ha [12]: 0%; plant injury at 125 g/ha [13]: 0%; plant injury at 31 g/ha [13]: 0%; pest or weed control at 125 g/ha (Kochia (Kochia scoparia) [14]): 0%; pest or weed control at 31 g/ha (Kochia (Kochia scoparia) [14]): 0%; pest or weed control at 125 g/ha [15]: 0%; pest or weed control at 31 g/ha [15]: 0%; pest or weed control at 125 g/ha [16]: 0%; pest or weed control at 31 g/ha [16]: 0%; pest or weed control at 125 g/ha [17]: 80%; pest or weed control at 31 g/ha [17]: 50%; plant injury at 125 g/ha (corn (Zea mays)): 0%; plant injury at 31 g/ha (corn (Zea mays)): 0%; pest or weed control at 125 g/ha [18]: 0%; pest or weed control at 31 g/ha [18]: 0%
